Assay results published in patent US9155729B2, “Thiazolidinedione analogues” (Metabolic Solutions Development Company, LLC, priority 2006, dated 2015).
Marks after values point to notes of the source that are not given here.

How the values were obtained:
Diabetic KKAy mice [1] = assay: Glucose and insulin in diabetic KKAy mice dosed 7 days with compound 1 or rosiglitazone; type: in vivo; conditions: 20 mg rosiglitazone or 100 mg/kg compound 1, fasting, 8th day, mean, 8 mice/group
Experimental: (§1) KKAy mice were dosed for 7 days with 20 mg rosigltiazone (positive control) and 100 mg/kg of compound 1 in suspension (1% sodium methyl carboxymethyl cellulose/0.01% Tween 80). On the 8th day, fasting, glucose, and insulin were measured, see Table D. The liver was isolated was used to measure hepatic mRNA for aP2, a biomarker for PPARγ activation in vivo. […] Data are mean and (SEM) for 8 mice/group.

PPARγ = target: T1, PPARγ (Homo sapiens, UniProt P37231); assay: Commercial PPARγ binding assay (Invitrogen, PPAR-LBD/Fluormone PPAR Green complex); conditions: for PPARγ binding signal (fluorescence polarization, Fluormone PPAR Green displacement): mean of three experiments
T1 construct: purchased Invitrogen Corporation, Carlsbad, Calif
T1 sequence (P37231 238-503 limits assumed): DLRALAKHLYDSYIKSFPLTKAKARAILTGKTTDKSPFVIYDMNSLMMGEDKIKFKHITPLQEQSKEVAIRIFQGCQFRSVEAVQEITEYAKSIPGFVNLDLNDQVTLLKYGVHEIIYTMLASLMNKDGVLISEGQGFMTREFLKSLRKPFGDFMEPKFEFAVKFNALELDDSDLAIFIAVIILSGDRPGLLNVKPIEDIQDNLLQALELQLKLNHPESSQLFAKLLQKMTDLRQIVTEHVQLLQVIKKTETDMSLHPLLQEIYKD
Experimental: The ability of several exemplary compounds of the present invention, shown in Table A, to bind to PPARγ was measured using a commercial binding assay (Invitrogen Corporation, Carlsbad, Calif.) that measures the test compounds ability to bind with PPAR-LBD/Fluormone PPAR Green complex. These assays were performed on three occasions with each assay using four separate wells (quadruplicate) at each concentration of tested compound. The data are mean and SEM of the values obtained from the three experiments. […] Compounds were added at the concentrations shown, which range from 0.1-100 micromolar.

Diabetic KKAy mice [2] = assay: Glucose, insulin and triglyceride in diabetic KKAy mice, 4 days oral dosing; type: in vivo; conditions: for Glucose / Insulin / Triglycerides: 93 mg/kg orally for 4 days, fasted, blood approx. 18 hours after last dose, mean and SEM, N=6-12
Experimental: The insulin sensitizing and antidiabetic pharmacology are measured in the KKA^Y mice as previously reported [Hofmann, C., Lomez, K., and Colca, J. R. (1991). Glucose transport deficiency corrected by treatment with the oral anti-hyperglycemic agent Pioglitazone. Endocrinology, 129:1915-1925.]. Compounds are formulated in 1% sodium carboxy methylcellulose, and 0.01% tween 20 and dosed daily by oral gavage.
Compounds were formulated by suspension and orally dosed to KKAy mice at 93 mg/kg for 4 days. The compounds were first dissolved in DMSO and then placed into aqueous suspension containing 7-10% DMSO, 1% sodium methylcarboxycellulose, and 0.01% Tween 20. On the fifth day, the mice were fasted and blood samples were obtained approximately 18 hours after the last dose. The parameters were measured by standard assay methods. Data are mean and SEM N=6-12 mice.

aP2 = assay: Hepatic mRNA for aP2, biomarker for PPARγ activation in vivo, KKAy mice
Experimental: as §1

SMILES	Glucose (Diabetic KKAy mice [1]) [mg/dL]	Insulin (Diabetic KKAy mice [1]) [ng/mL]	PPARγ binding signal (fluorescence polarization, Fluormone PPAR Green displacement) (PPARγ; 1 μM compound)	PPARγ binding signal (fluorescence polarization, Fluormone PPAR Green displacement) (PPARγ; 3 μM compound)	PPARγ binding signal (fluorescence polarization, Fluormone PPAR Green displacement) (PPARγ; 10 μM compound)	PPARγ binding signal (fluorescence polarization, Fluormone PPAR Green displacement) (PPARγ; 50 μM compound)	PPARγ binding signal (fluorescence polarization, Fluormone PPAR Green displacement) (PPARγ; 100 μM compound)	PPARγ binding signal (fluorescence polarization, Fluormone PPAR Green displacement) (PPARγ; .1 μM compound)	PPARγ binding signal (fluorescence polarization, Fluormone PPAR Green displacement) (PPARγ; .3 μM compound)	Binding to PPARγ (in words) (PPARγ; referring to FIG. 1 and Table B)	Glucose (Diabetic KKAy mice [2])	Insulin (Diabetic KKAy mice [2])	Triglycerides (Diabetic KKAy mice [2])	aP2 (relative expression in liver) (aP2; KKAy mice dosed 7 days, 20 mg rosiglitazone or 100 mg/kg compound 1, hepatic mRNA, mean, 8 mice/group)	Activation of PPARγ in vivo as compared to the positive control (in words) (aP2; KKAy mice, hepatic aP2 mRNA, 100 mg/kg for 7 days)	Effectiveness at lowering glucose, insulin and triglyceride levels / antidiabetic activity (in words) (Diabetic KKAy mice [2]; Table C)
CN(CCOc1ccc(CC2SC(=O)NC2=O)cc1)c1ccccn1 (stereo not shown) [Rosiglitazone, reference compound]	320	3.4														
CCc1ccc(C(=O)COc2ccc(CC3SC(=O)NC3=O)cc2)nc1 (stereo not shown) [Compound 1]	291	1.9	223	228	207	174	170	227	232	particularly poor binders	402 +/− 25* mg/dl	7.6 +/− 1.9* ng/ml	115 +/− 18* mg/dl	5.7	little activation of PPARγ	
CCc1ccc([C@H](O)COc2ccc(CC3SC(=O)NC3=O)cc2)nc1 (stereo partly shown) [Compound 3]			203	185	134	88	77	226	221		388 +/− 38* mg/dl	7.2 +/− 1.9* ng/ml	148 +/− 23* mg/dl			equivalent antidiabetic activity
